The source of these data is ChEMBL document CHEMBL1201862, “PubChem BioAssay data set” (2004).

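All cell lines were grown in 96-well plates and treated with compound for 48 hours. GI50 is the concentration that inhibits growth by half.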 Calls of active or inactive are those of the source. No stated cut-off is given here; in the data, active = GI50 up to about 1.1 µM and inactive = higher.

Test systems include DU-145; Hs-578T; SW-620; M14; UACC-62; HCT-15; T47D; SN12C; COLO 205; LOX IMVI; CCRF-CEM; A498; MDA-MB-231; OVCAR-3; KM12; NCI/ADR-RES; EKVX; CAKI-1; HCC 2998; SNB-19.
Assay in all cases: NCI tumour cell line growth inhibition, 48 h

For the compound `CC1CCCCN1CC(=O)c1ccc2c(c1)Sc1ccccc1O2` (stereo not given), the GI50 is 26.7 µM (inactive) in the assay on DU-145; 10.8 µM (inactive) with Hs-578T; 19.1 µM (inactive) with SW-620; 19.5 µM (inactive) in the assay with M14; 13.3 µM (inactive) with UACC-62; 19.7 µM in the assay with HCT-15. Also, the GI50 was 20.7 µM (inactive) in the assay on T47D; 18.7 µM (inactive) in the assay with SN12C; 24 µM (inactive) with COLO 205; 9.93 µM (inactive) in the assay with LOX IMVI; 16.5 µM (inactive) in the assay with CCRF-CEM; 18.8 µM (inactive) in the assay with A498. The GI50 was 24.7 µM (inactive) in the assay on MDA-MB-231; 14.4 µM (inactive) in the assay with OVCAR-3; 16.5 µM (inactive) in the assay with KM12; 16.7 µM (inactive) in the assay on NCI/ADR-RES; 13.3 µM (inactive) in the assay on EKVX; 17.9 µM (inactive) in the assay on CAKI-1. In addition, the GI50 is 17.7 µM (inactive) with HCC 2998 and 17.9 µM (inactive) in the assay with SNB-19.
In the case of `O=C1c2c(Br)sc(Br)c2[C@@H](O)[C@H]1O`, the GI50 in the assay on DU-145 is 16.4 µM (inactive); in the assay on Hs-578T, 23.1 µM (inactive); in the assay with SW-620, 3.28 µM (inactive); with M14, 13.1 µM (inactive); in the assay with UACC-62 it was 16.7 µM (inactive); in the assay on HCT-15, 11.4 µM. The GI50 with T47D is 19.4 µM (inactive); with SN12C it was 16.3 µM (inactive); in the assay on COLO 205, 14.3 µM (inactive); in the assay on LOX IMVI, 7.13 µM (inactive); in the assay on CCRF-CEM it was 2.32 µM (inactive); in the assay with A498 it was 68.1 µM (inactive). The GI50 in the assay on MDA-MB-231 was 16.6 µM (inactive); with OVCAR-3, 2.24 µM (inactive); with KM12, 21.2 µM (inactive); in the assay with NCI/ADR-RES, 22.4 µM (inactive); in the assay on EKVX, 16.7 µM (inactive); in the assay on CAKI-1, 18.4 µM (inactive). Besides, the GI50 with HCC 2998 is 20.1 µM (inactive); in the assay on SNB-19, 19.5 µM (inactive).
For the compound `O=C1/C(=C/c2ccc(O)cc2)CCc2ccc([N+](=O)[O-])cc21`, the GI50 with DU-145 is 55.3 µM (inactive); in the assay with Hs-578T, 35.9 µM (inactive); in the assay with SW-620, > 100 µM (inactive); in the assay on M14, > 100 µM (inactive); in the assay with UACC-62 it was > 74.3 µM (inactive); in the assay with HCT-15 it was more than 100 µM. Also, the GI50 is 68.7 µM (inactive) in the assay on T47D; > 100 µM (inactive) with SN12C; > 100 µM (inactive) in the assay on COLO 205; > 100 µM (inactive) in the assay with LOX IMVI; 0.419 µM (active) in the assay with CCRF-CEM; 34.6 µM (inactive) in the assay with A498. Further, the GI50 in the assay on MDA-MB-231 was > 100 µM (inactive); in the assay on OVCAR-3, > 78.2 µM (inactive); in the assay on KM12, > 76 µM (inactive); in the assay on NCI/ADR-RES, 73.5 µM (inactive); in the assay on EKVX, > 89.5 µM (inactive); with CAKI-1, > 82.6 µM (inactive). In addition, the GI50 in the assay with HCC 2998 is > 100 µM (inactive); with SNB-19 it was 39.1 µM (inactive).
For `CC(=O)OC(Cc1ccc2ccccc2n1)(C(F)(F)F)C(F)(F)F`, the GI50 with DU-145 is 3.31 µM (inactive); in the assay with Hs-578T, 1.35 µM (inactive); in the assay on SW-620 it was 0.426 µM (active); in the assay on M14, 1.23 µM (inactive); in the assay on UACC-62 it was 1.32 µM (inactive); in the assay with HCT-15, 1.97 µM. Further, the GI50 was 0.181 µM (active) in the assay with T47D; 1.27 µM (inactive) in the assay on SN12C; 0.217 µM (active) in the assay with COLO 205; 0.267 µM (active) in the assay with LOX IMVI; 0.0728 µM (active) with CCRF-CEM; 1.95 µM (inactive) in the assay with A498. Also, the GI50 was 1.28 µM (inactive) in the assay on MDA-MB-231; 0.676 µM (active) in the assay with OVCAR-3; 4.7 µM (inactive) in the assay on KM12; 1.72 µM (inactive) in the assay on NCI/ADR-RES; 4.62 µM (inactive) in the assay with EKVX; 0.802 µM (active) in the assay on CAKI-1. Also, the GI50 in the assay with HCC 2998 was 0.851 µM (active); in the assay with SNB-19, 3.76 µM (inactive).
